Patent publication US9909123B2, “Antisense molecules for treatment of Staphylococcus aureus infection” (priority 2013, dated 2018)
Ends that are not written are not given here.

system: MRSA; experiment: FITC assay to monitor cellular uptake of peptides (fluorescence microscopy); type: cell-based, Staphylococcus aureus; settings: 2 hours post-treatment with 1 μM of FITC-peptide agents
Procedure: An FITC assay may be utilized, to monitor cellular uptake of peptides. Peptides were conjugated to fluorescein isothiocyanate (FITC) to monitor uptake using florescence microscopy. FIG. 2A-2B show assay results for several peptides as tested in MRSA (FIG. 2A) and AcB (FIG. 2B) (fluorescent overlays 2 hours post-treatment with 1 μM of FITC peptide agents, scale bar=100 μm).
An FITC assay was utilized to monitor cellular uptake of peptides. Peptides were conjugated to fluorescein isothiocyanate (FITC) to monitor uptake using, florescence microscopy.

Row | Sequence | cellular entry of FITC-peptide
1 | KFFKFFKFFK (also: FITC label, site not given here) [cell penetrating peptide, tested conjugated to FITC] | effective for cellular entry
2 | RFFRFFRFFR (also: FITC label, site not given here) [cell penetrating peptide, tested conjugated to FITC] | effective for cellular entry
3 | GIGKWLHSAKKFGKAFVGEIMNS (also: FITC label, site not given here) [Magainin-FITC, Magainin 2 cell penetrating peptide conjugated to fluorescein isothiocyanate (FITC)] | effective for entry into MRSA
